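48-hour exposure; five concentrations; linearly interpolated endpoints. Here, GI50 denotes the concentration required for 50% inhibition of growth. TGI: concentration producing complete growth inhibition.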
Legend:
Test in all cases: NCI tumour cell line growth inhibition, 48 h
[1] = system: SW-620 colon
[2] = system: OVCAR-8 ovarian
[3] = system: SF-295 CNS
[4] = system: HCT-15 colon
[5] = system: CCRF-CEM leukemia
[6] = system: SK-MEL-5 melanoma
[7] = system: 786-0 renal
[8] = system: U251 CNS
[9] = system: PC-3 prostate
[10] = system: MDA-MB-435

Structure (SMILES)	TGI [1] [µM]	TGI [2] [µM]	TGI [3] [µM]	TGI [4] [µM]	GI50 [5] [µM]	TGI [5] [µM]	TGI [6] [µM]	TGI [7] [µM]	TGI [8] [µM]	GI50 [9] [µM]	TGI [9] [µM]	GI50 [1] [µM]	GI50 [2] [µM]	GI50 [3] [µM]	GI50 [10] [µM]	TGI [10] [µM]	GI50 [4] [µM]	GI50 [6] [µM]	GI50 [7] [µM]	GI50 [8] [µM]
COc1cc(CNc2nc3c(N)cc(C(F)(F)F)cc3nc2-c2ccccc2)cc(OC)c1OC	> 100	> 100	> 100	> 100	> 100	> 100	> 100	> 100	> 100	–	–	–	–	–	–	–	–	–	–	–
Oc1c(C(Nc2ccccc2Br)c2ccccc2)ccc2cccnc12 (configuration not stated)	25.3	> 100	47.3	27.3	–	–	7.38	6.41	13.4	3.92	> 100	2.63	2.11	1.65	4	70.2	0.672	1.72	2.22	0.674
C=C(C)[C@@H]1CCC=C2CC[C@]3(C)[C@H](CC[C@@H]4[C@@]5(C)CCCNC(C)(C)[C@@H]5CC[C@]43C)[C@H]21	3.59	–	3.13	–	2.48	7.21	14	3.04	3.12	2.31	6.21	1.84	–	1.69	1.66	3.11	–	3.58	1.68	1.69
CC(C)C1CO[C@]2(C)CCC(=O)N12 (some centres not stated)	> 100	> 100	> 100	> 100	–	> 100	> 100	> 100	> 100	–	–	–	–	–	–	–	–	–	–	–
Cc1cc2c(c(C(N)=O)c1C)-c1cccc(F)c1C2=O	> 100	> 100	> 100	> 100	–	> 100	> 100	> 100	> 100	–	–	–	–	–	–	–	–	–	–	–
O=c1cc(-c2ccccn2)[nH]c2cccc(F)c12	> 100	> 100	> 100	–	–	> 100	> 100	> 100	–	–	–	–	–	–	–	–	–	–	–	–
O=c1cccccc1[O-].O=c1cccccc1[O-].O=c1cccccc1[O-].[Eu+3]	> 100	63.8	> 100	> 100	–	78	> 100	> 100	> 100	–	–	–	–	–	–	–	–	–	–	26.9
Cc1c(C(=O)C/C(=N/NC(=O)c2ccccc2)C(=O)Nc2ccc(Cl)cc2)[n+](=O)c2ccccc2n1[O-]	> 100	> 100	> 100	> 100	–	74.4	> 100	> 100	> 100	–	–	–	–	–	–	–	–	–	–	–
COc1ccc2c(c1)[n+](=O)c(C(=O)c1cccs1)c(C(F)(F)F)n2[O-]	> 50	> 50	16.5	–	11	> 50	5.91	> 50	> 50	2.42	18.6	8.43	2.79	2.89	12.2	> 50	–	1.23	17	10.3
CCCn1c(SCCSc2c3ccccc3c(-c3nc(F)nc(F)n3)n2CCC)c2ccccc2c1-c1nc(F)nc(F)n1	32.6	> 100	> 100	> 100	–	> 100	–	> 100	> 100	–	–	–	–	–	–	–	–	–	–	–
CCCCC(SC(=S)N1CCCC1)C(=O)Nc1nc(CC(=O)OCC)cs1 (configuration not stated)	> 100	> 100	> 100	> 100	–	–	45.6	> 100	> 100	0.985	> 100	68.6	40.1	47.3	35.4	> 100	66.1	13.1	62.2	53.8
CCC[CH2][Sn]([CH2]CCC)([O]C(=O)c1cc(OC)c(OC)cc1OC)[O][Sn]([CH2]CCC)([CH2]CCC)[O]C(=O)c1cc(OC)c(OC)cc1OC	0.536	1.89	2.41	1.71	0.0421	0.422	2.15	0.698	2.41	–	–	0.182	0.583	1.1	–	–	0.497	0.898	0.24	1.17
C[N+]1=c2c3cccc4cccc(c(=O)n2CC1)c43	> 100	80.9	56.1	60.7	–	42.3	32.8	> 100	85.8	–	–	–	–	–	–	–	–	–	–	–
N#C/C(=C1\SCC(=O)N1c1ccccc1)c1nc2ccccc2[nH]1	> 100	> 100	> 100	> 100	–	> 100	> 100	> 100	> 100	–	–	–	–	–	–	–	–	–	–	–
O=C1C2C(C(=O)N1c1ccccc1)C1c3ccccc3C2C2C(=O)N(c3ccccc3)C(=O)C21 (configuration not stated)	> 100	> 100	15.5	> 100	–	> 100	> 100	> 100	11.5	–	–	–	–	–	–	–	–	–	–	–
O=C(/C=C(\O)C(=O)O)/C=C(\O)c1ccccc1	> 100	> 100	> 100	> 100	> 1	> 100	> 1	> 100	> 100	–	–	–	–	–	–	–	> 1	> 1	> 1	> 1
CCOC(=O)NC(=O)c1cn(CCN2CCN(C(=O)CNC(=O)CNC(=O)Cn3cc(C(=O)NC(=O)OCC)c(=O)[nH]c3=O)CC2)c(=O)[nH]c1=O	> 100	> 100	> 100	> 100	–	> 100	–	> 100	> 100	–	–	–	–	–	–	–	–	–	–	–
CC(C)/C=C1\CCC(CN2CCOCC2)C1=O (configuration not stated)	8.08	> 40.8	> 77.7	19.2	–	9.51	36.8	8.9	> 56.4	–	–	–	–	–	–	–	–	–	–	–
C/C(CC(=O)Nc1cccc(Cl)c1C)=N\NC(N)=S	> 100	> 100	> 100	–	–	> 100	> 100	> 100	> 100	–	–	–	–	–	–	–	–	–	–	–

Structure (SMILES)	TGI [1] [µM]	TGI [2] [µM]	TGI [3] [µM]	TGI [4] [µM]	GI50 [5] [µM]	TGI [5] [µM]	TGI [6] [µM]	TGI [7] [µM]	TGI [8] [µM]	GI50 [9] [µM]	TGI [9] [µM]	GI50 [1] [µM]	GI50 [2] [µM]	GI50 [3] [µM]	GI50 [10] [µM]	TGI [10] [µM]	GI50 [4] [µM]	GI50 [6] [µM]	GI50 [7] [µM]	GI50 [8] [µM]
COC1C(OC(=O)c2ccc(C)[nH]2)C(O)C(Oc2ccc3c(O)c(NC(=O)c4c[nH]c(C(=O)Nc5c(O)c6ccc(OC7OC(C)(C)C(OC)C(OC(=O)c8ccc(C)[nH]8)C7O)c(C)c6oc5=O)c4C)c(=O)oc3c2C)OC1(C)C (configuration not stated)	45.9	> 100	> 100	7.06	–	10.6	6.51	5.42	2.89	–	–	–	–	–	–	–	–	–	–	–
C#CC1(O)CCC2C3CCc4cc(Oc5nc(F)nc(-c6c7ccccc7c7n6CCS7)n5)ccc4C3CC[C@@]21C (some centres not stated)	> 100	> 100	30.1	54.3	–	80.1	45.5	> 100	40.7	–	–	–	–	–	–	–	–	–	–	–
Nc1ccn(C2CC(F)C(CO)O2)c(=O)n1 (configuration not stated)	–	> 100	> 100	> 100	> 100	> 100	> 100	> 100	> 100	> 100	> 100	–	> 100	> 100	> 100	> 100	> 100	> 100	> 100	> 100
[N-]=[N+]=NC(c1cn(C2CC(O)C(CO)O2)c(=O)[nH]c1=O)C(Cl)Br (configuration not stated)	> 100	> 100	> 100	> 100	–	> 100	> 100	> 100	> 100	–	–	–	–	–	–	–	–	–	–	–
CN(C)Cc1ccc(-c2cc3onc(-c4ccccc4)c3c(=O)n2C)cc1	65.1	> 100	46.5	50.2	–	–	47.1	35	64.8	–	> 100	–	–	–	–	59.8	–	–	–	–
COc1cc2c(cc1OC)C(C(=O)O)C(c1ccccc1)N(C)C2=O (configuration not stated)	> 100	> 100	> 100	–	–	> 100	> 100	> 100	> 100	–	–	–	–	–	–	–	–	–	–	–
COc1cc2c(cc1OC)-c1ncc3c(OC)ccc(OC)c3c1C2	> 100	38.2	42.7	> 100	–	–	34.3	> 100	56.4	26.5	> 100	35.1	2.36	12.1	23.4	99.6	9.93	12.4	49.2	14.6
C=CCn1c(=S)sc2c(C(=O)OCC)c3c(C)cc(C)cn3c2c1=O	> 100	> 100	> 100	> 100	–	> 100	> 100	> 100	> 100	–	–	–	–	–	–	–	–	–	–	–
C/C(CC(=O)NCCc1ccccc1)=N\NS(=O)(=O)c1ccc(C)cc1	> 100	> 100	> 100	–	–	> 100	> 100	> 100	> 100	–	–	–	–	–	–	–	–	–	–	–
CCO/C=C1\N=C(c2ccc(Cl)c(Cl)c2)OC1=O	> 100	> 100	> 100	> 100	–	> 100	> 100	> 100	–	–	–	–	–	–	–	–	–	–	–	–
COc1c(C(C)=O)c(OCCCCOc2c(C(C)=O)c(OC)c3ccoc3c2OC)c(OC)c2occc12	> 100	7.85	> 100	> 100	–	–	3.4	> 100	> 100	1.69	> 20.6	> 100	2.27	1.35	2.14	> 100	3.88	1.52	> 100	> 28.1
ClC(Cl)=C(Cl)C1(Cl)CC1COCc1ccccc1 (configuration not stated)	> 100	> 100	96.2	> 100	–	49	31.8	> 100	–	–	–	–	–	–	–	–	–	–	–	–
O=S(=O)(NC1CCCCC1)c1ccc2c(c1)OCCOCCOCCOCCO2	> 100	> 100	> 100	> 100	–	> 100	> 100	> 100	–	–	> 100	–	–	–	–	> 100	–	–	–	–
C/C(=C\c1ccn(-c2ccccc2N)n1)[C@@H]1C[C@@H]2O[C@]2(C)CCC[C@H](C)[C@H](O)[C@@H](C)C(=O)C(C)(C)[C@@H](O)CC(=O)O1	> 50	> 50	> 50	> 50	0.0343	> 50	> 50	> 42.6	> 33.6	0.0371	> 50	0.0245	0.0617	0.0797	–	–	0.0393	0.0286	0.0938	0.0348
CNC(=O)NCC1OC(n2cnc3c(NC(=O)Nc4ccccc4)ncnc32)C(O[Si](C)(C)C(C)(C)C)C1O[Si](C)(C)C(C)(C)C (configuration not stated)	–	40.1	31.8	> 100	3.59	> 100	4.75	3.71	10.8	2.69	> 100	–	4.01	3.84	3.41	29.1	3.62	1.98	2.04	2.96
COC(=O)CCC(NC(=S)N/N=C(\C)c1ccc[nH]1)C(=O)OC (configuration not stated)	> 100	> 100	> 100	> 100	–	> 100	> 100	> 100	> 100	–	–	–	–	–	–	–	–	–	–	–
Cc1cn2c(/C=C3/C(=O)Nc4c3ccc3ccccc43)c(C(F)(F)F)nc2s1	> 100	> 100	> 100	> 100	2.33	39.8	> 100	39	> 100	1.24	> 100	0.965	4.65	0.494	–	–	0.618	1.03	1.49	2.12
C=CC(=O)N1C/C(=C\c2ccc(Cl)c(Cl)c2)C(=O)/C(=C/c2ccc(Cl)c(Cl)c2)C1	0.262	0.274	0.891	0.201	–	0.082	1.74	0.194	0.0724	–	–	–	–	–	–	–	–	–	–	–

— PubChem BioAssay (NCI)
